Experimental data published in patent US11667602B2, “Compounds and their use” (AstraZeneca AB, priority 2020, dated 2023).
≈ marks a conversion by molar mass, not a printed value.

Columns and labels:
[1] = Rat Hepatocyte Stability (Test E); assay type: in vitro ADME; conditions: rat, hepatocytes, geometric mean if run multiple times
Procedure, shortened: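 Run per the published AstraZeneca-type rat hepatocyte stability protocol (Wernevik et al. panel). Values are mean intrinsic clearance, Clint in μl/min/10^6 cells; geometric mean used for repeated runs.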

[2] = molecular target: T1, human RXFP1 (Homo sapiens, UniProt Q9HBX9); experiment: RXFP1 Hu cAMP (Test A); assay type: cell-based; set-up: expressed in transfected cells; host or cells: Jump-In T-REx CHO-K1 cells (ThermoFisher), induced with 10 ng/ml doxycycline for 24 h; conditions: RXFP1 Hu cAMP; for EC50: read-out: Test A EC50
T1 sequence (Q9HBX9 1-757): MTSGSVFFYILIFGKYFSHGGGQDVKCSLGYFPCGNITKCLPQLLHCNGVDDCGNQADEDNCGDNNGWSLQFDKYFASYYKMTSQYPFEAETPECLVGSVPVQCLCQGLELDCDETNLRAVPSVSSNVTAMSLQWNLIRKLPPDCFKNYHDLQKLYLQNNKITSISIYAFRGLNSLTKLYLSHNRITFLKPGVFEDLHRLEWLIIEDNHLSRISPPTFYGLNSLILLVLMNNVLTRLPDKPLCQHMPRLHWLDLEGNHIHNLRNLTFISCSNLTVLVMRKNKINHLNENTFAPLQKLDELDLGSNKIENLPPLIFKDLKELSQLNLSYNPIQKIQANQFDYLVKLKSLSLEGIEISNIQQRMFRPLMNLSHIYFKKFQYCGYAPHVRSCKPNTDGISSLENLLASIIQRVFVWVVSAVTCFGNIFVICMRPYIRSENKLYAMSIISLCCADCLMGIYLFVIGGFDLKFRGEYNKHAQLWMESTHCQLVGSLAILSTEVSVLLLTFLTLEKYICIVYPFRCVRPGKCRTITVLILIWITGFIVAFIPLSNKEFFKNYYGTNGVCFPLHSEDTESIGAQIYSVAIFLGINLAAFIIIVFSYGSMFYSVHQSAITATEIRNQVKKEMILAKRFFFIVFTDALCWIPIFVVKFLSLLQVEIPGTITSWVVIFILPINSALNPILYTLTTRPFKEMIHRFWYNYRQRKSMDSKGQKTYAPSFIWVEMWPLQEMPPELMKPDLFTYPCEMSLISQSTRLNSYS
Procedure, shortened: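 Read-out is HTRF signal, inversely proportional to cAMP, converted to cAMP amount by standard curve. Stimulation occurred in inducible CHO-K1 cells expressing the human receptor with phosphodiesterases blocked by 0.5 mM IBMX.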

[3] = Human Liver Microsomal Stability (Test C); assay type: in vitro ADME; conditions: human, liver microsomes
Procedure, shortened: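 Human liver microsome incubation per the Wernevik et al. integrated DMPK panel protocol. Intrinsic clearance reported as CLint in μl/min/mg protein, averaged arithmetically over repeat runs.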

[4] = Solubility (Test F); assay type: physicochemical; conditions: arithmetic mean if run multiple times
Experimental: The assay was conducted according to the Solubility Assay described in pages 164-167 of Wernevik, J. et al., “A Fully Integrated Assay Panel for Early Drug Metabolism and Pharmacokinetics Profiling”, Assay and Drug Development Technologies, 2020, 18(4), 157-179. Data are reported in Table 36 as solubility ([…]. Where the assay was run multiple times for the same compound, the arithmetic mean is reported.

[5] = Human Plasma Protein Binding (Test B); assay type: in vitro ADME; conditions: fraction unbound (fu)
Procedure, shortened: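 Human plasma protein binding run per the published Wernevik et al. (2020) integrated DMPK panel protocol. Values are fraction unbound (fu, % free); repeat runs averaged arithmetically.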

[6] = Human Hepatocyte Stability (Test D); assay type: in vitro ADME; conditions: human, cryopreserved pooled human hepatocytes (LiverPool 10-Donor), geometric mean if run multiple times
Procedure, shortened: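 Pooled 10-donor cryopreserved human hepatocytes (≥80% viable) in L-15 medium at 0.25×10^6 cells per 0.25 mL well. Compound added from 100 μM acetonitrile solution; incubated at 37 °C with shaking, acetonitrile-quenched, LC-MS analysed. Clint (μL/min/10^6 cells) from ln % parent vs time slope; geometric mean of repeat runs.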

| Structure (SMILES) | hepatocyte CLint [1] [µL/min/1e6 cells] | Test A Sinf [2] [%] | EC50 [2] [nM] | microsomal CLint [3] [µL/min/mg] | solubility [4] [µM] | Test B Human Plasma Protein Binding (% free) [5] [% free] | hepatocyte CLint at 1 µM [6] [µL/min/1e6 cells] |
| --- | --- | --- | --- | --- | --- | --- | --- |
| COc1cc(F)c(O[C@H]2CC[C@@](C)(C(=O)O)CC2)cc1C(=O)N[C@@H]1[C@H]2CC[C@H](C2)[C@@H]1C(=O)N[C@H](C)C1(C)CC1 (racemic) [Example 39] | 59 | 96 | 740 | 24 | 980 (≈ 534 µg/mL) | 4.8 | 8.2 |
| COc1cc(-c2cc(C(=O)N[C@H]3[C@@H](C(=O)Nc4cccc(S(=O)(=O)C(F)(F)F)c4)[C@@H]4C=C[C@H]3C4)c(OC)cc2F)ccc1C(=O)O (racemic) [Example 226, rac-2′-Fluoro-3,4′-dimethoxy-5′-(((1R,2R,3S,4S)-3-((3-((trifluoromethyl)sulfonyl)phenyl)carbamoyl)bicyclo[2.2.1]hept-5-en-2-yl)carbamoyl)-[1,1′-biphenyl]-4-carboxylic acid] | 16 | 105 | 300 | 12 | 870 (≈ 576 µg/mL) | 0.62 | 11 |
| COc1cc(F)c(-c2ccc(F)c(C(=O)O)c2)cc1C(=O)N[C@H]1[C@@H](C(=O)Nc2cccc(S(=O)(=O)C(F)(F)F)c2)[C@@H]2C=C[C@H]1C2 (racemic) [Example 231] | 13 | 112 | 480 | < 3 | 17 (≈ 11.1 µg/mL) | <0.31 | 7.7 |
| COc1cc(F)c(-c2ccc(CC(=O)O)cc2)cc1C(=O)N[C@H]1[C@@H](C(=O)Nc2cccc(S(=O)(=O)C(F)(F)F)c2)[C@@H]2C=C[C@H]1C2 (racemic) [Example 234] | 9.3 | 110 | 88 | 4.7 | 690 (≈ 446 µg/mL) | <0.30 | 6.5 |
| COc1cc(F)c(-c2cccc(CC(=O)O)c2)cc1C(=O)N[C@H]1[C@@H](C(=O)Nc2cccc(S(=O)(=O)C(F)(F)F)c2)[C@@H]2C=C[C@H]1C2 (racemic) [Example 281] | 9.1 | 170 | 870 | 5.5 | 11 (≈ 7.11 µg/mL) | 0.31 | 5 |
| COc1cc(F)c(-c2ccc(C3(C(=O)O)CC3)cc2)cc1C(=O)N[C@H]1[C@@H](C(=O)Nc2cccc(S(=O)(=O)C(F)(F)F)c2)[C@@H]2C=C[C@H]1C2 (racemic) [Example 288] | 21 | 107 |  | 5.1 | 24 (≈ 16.1 µg/mL) | <0.32 | 5 |
| COc1cc(F)c(-c2ccc(C[C@@H](C(=O)O)N(C)C)cc2)cc1C(=O)N[C@@H]1[C@H]2CC[C@H](C2)[C@@H]1C(=O)Nc1cccc(S(=O)(=O)C(F)(F)F)c1 (racemic) [Example 289, (S)-2-(Dimethylamino)-3-(2′-fluoro-4′-methoxy-5′-(((1RS,2SR,3RS,4SR)-3-((3-((trifluoromethyl)sulfonyl)phenyl)carbamoyl)bicyclo[2.2.1]heptan-2-yl)carbamoyl)-[1,1′-biphenyl]-4-yl)propanoic acid] | 11 | 112 | 470 | 21 | 36 (≈ 25.4 µg/mL) | 1 | 7.2 |
| COc1cc(F)c(-c2ccc(C(=O)O)cc2)cc1C(=O)N[C@H]1[C@@H](C(=O)Nc2ccc(F)c(S(=O)(=O)C(F)(F)F)c2)[C@@H]2C=C[C@H]1C2 (racemic) [Example 296, rac-2′-Fluoro-5′-(((1R,2R,3S,4S)-3-((4-fluoro-3-((trifluoromethyl)sulfonyl)phenyl)carbamoyl)bicyclo[2.2.1]hept-5-en-2-yl)carbamoyl)-4′-methoxy-[1,1′-biphenyl]-4-carboxylic acid] | 17 | 98 | 220 | 15 | 640 (≈ 416 µg/mL) | <0.32 | 22 |
| COc1cc(F)c(-c2cccc(C(=O)O)c2)cc1C(=O)N[C@H]1[C@@H](C(=O)Nc2ccc(F)c(S(=O)(=O)C(F)(F)F)c2)[C@@H]2C=C[C@H]1C2 (racemic) [Example 297] | 12 | 98 | 120 | 9.1 | 8 (≈ 5.2 µg/mL) | <0.33 | 9.4 |
| COc1cc(F)c(-c2ccc(C(=O)O)cc2)cc1C(=O)N[C@H]1[C@@H](C(=O)Nc2cc(F)cc(C(F)(F)F)c2)[C@@H]2C=C[C@H]1C2 (racemic) [Example 308] | 33 | 109 |  | 4.9 | > 1000 | 0.16 | 14 |
| COc1cc(F)c(O[C@H]2CC[C@@](C)(C(=O)O)CC2)cc1C(=O)N[C@@H]1[C@H](O)CC[C@@H]1C(=O)Nc1cccc(S(=O)(=O)C(F)(F)F)c1 (racemic) [Example 396, (1R,4s)-4-(2-Fluoro-5-(((1SR,2RS,5SR)-2-hydroxy-5-((3-((trifluoromethyl)sulfonyl)phenyl)carbamoyl)cyclopentyl)carbamoyl)-4-methoxyphenoxy)-1-methylcyclohexane-1-carboxylic acid] | 16 | 91 | 640 | 47 | 21 (≈ 13.9 µg/mL) | 5 | 16 |
| COc1cc(F)c(Oc2ccc(C(=O)O)cc2)cc1C(=O)N[C@H]1[C@@H](C(=O)Nc2cccc(S(=O)(=O)C(F)(F)F)c2)[C@@H]2C=C[C@H]1C2 (racemic) [Example 484] | 13 | 101 | 250 | 9.4 | 400 (≈ 259 µg/mL) | <0.31 | 7.2 |
